Earlier results in patent publication US20040259949A1, “Method” (priority 2001, published 2004).

Key:
[1] = mice
[2] = rat model

Compound	effect of PDT on viability of normal human fibroblasts (normal human fibroblasts)	effect of PDT on healing of colonic anastomosis [1]	influence of PDT on skin wound healing [2]
NCC(=O)CCC(=O)O [5-ALA, 5-amino-4-oxo-pentanoic acid]	no effect on viability of normal human fibroblasts	no significant impairment in healing of colonic anastomosis	–
benzoporphyrin derivative monoacid ring A [BDP-MA]	–	–	did not influence skin wound healing
